The text below walks through data of patent US20220204491A1, “FXR (NR1H4) MODULATING COMPOUNDS” (Gilead Sciences, Inc., priority 2019, published 2022).

The target in the series is T1, human UGT1A1 (Homo sapiens, UniProt P22309).
T1 construct: purchased
T1 sequence (P22309 26-533): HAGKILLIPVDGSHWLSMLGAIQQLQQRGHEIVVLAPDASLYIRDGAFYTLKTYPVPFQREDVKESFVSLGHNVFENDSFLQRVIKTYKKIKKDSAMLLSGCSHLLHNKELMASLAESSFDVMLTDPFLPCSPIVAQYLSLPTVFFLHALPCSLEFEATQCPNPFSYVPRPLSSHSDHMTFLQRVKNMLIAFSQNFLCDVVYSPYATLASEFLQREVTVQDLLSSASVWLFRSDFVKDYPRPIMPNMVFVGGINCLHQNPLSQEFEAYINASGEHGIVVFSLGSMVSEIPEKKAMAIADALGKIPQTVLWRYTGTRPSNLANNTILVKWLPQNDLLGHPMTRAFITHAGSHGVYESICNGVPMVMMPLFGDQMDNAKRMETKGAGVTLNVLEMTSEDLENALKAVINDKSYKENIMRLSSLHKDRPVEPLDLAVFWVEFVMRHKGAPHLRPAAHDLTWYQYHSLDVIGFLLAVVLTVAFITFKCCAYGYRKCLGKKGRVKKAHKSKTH
Kind of series: UGT1A1 inhibition (estradiol 3-glucuronide formation, Supersomes). It counts as in vitro ADME. The method, then:
The compound of Formula (I) (Example 1) was tested for inhibition of UGT1A1 and was compared against Comparative Example 1. To perform the assay, sample compound was incubated with human UGT1A1 expressed Supersomes™ (0.25 mg/mL), alamethicin (25 μg/mg) and UDPGA (5 mM) in the presence of probe substrate estradiol (10 μM) for 30 mins at 37° C. A selective UGT1A1 inhibitor, atazanavir, was screened alongside the test compounds as a positive control. The reactions were terminated by quenching an aliquot into two volumes of methanol. The samples were centrifuged at 2500 rpm for 30 mins at 4° C., and aliquots of the supernatant were diluted with formic acid in deionised water (final formic acid concentration 0.1%) and internal standard. Cyprotex generic LC-MS/MS conditions were used to monitor estradiol 3-glucuronide formation. A decrease in the formation of the metabolite compared to vehicle control is used to calculate an IC50 value.

A word on the IC50: it is the concentration needed to halve the response being measured. A low value points to greater potency in that assay. With `O=C(O)c1ccc(N2CC(O)(c3ccc(OCc4c(-c5c(Cl)cc(F)cc5Cl)noc4C4CC4)cc3Cl)C2)nc1` [Example 1, 6-(3-(2-chloro-4-((5-cyclopropyl-3-(2,6-dichloro-4-fluorophenyl)isoxazol-4-yl)methoxy)phenyl)-3-hydroxyazetidin-1-yl)nicotinic acid], the “UGT1A1 inhibition, comparison of the compounds” value (Example 1 compared against Comparative Example 1) is on record as “most potent UGT1A1 inhibition of the compounds compared”. This compound yielded an IC50 (probe substrate estradiol 10 μM, 30 mins at 37° C.) of 440 nM.
